In PubChem BioAssay AID256 (DTP/NCI, 2004):
Several values for one entry are separate records, joined by “and”; a condition that tells them apart may be missing. Equal values may be shown once. Inconclusive results and toxic doses are left out.

Tested on: CD2F1 mice, L1210 leukemia ip, survival T/C
Assay: NCI In Vivo Anticancer Drug Screen. Data for tumor model L1210 Leukemia (intraperitoneal) in CD2F1 (CDF1) mice
Settings: higher = longer survival
Outline: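 Activity against a transplanted murine tumor was judged by comparing the compound group with a vehicle group. The outcome in the treated animals was divided by that in the controls.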

COc1cc(NS(C)(=O)=O)ccc1Nc1c2ccccc2nc2ccccc12
T/C (endpoint: mean survival time, dose: 1.0 mg/kg/injection, schedule: Q01DX009 (ip), vehicle: saline): 110 % of control
T/C (endpoint: mean survival time, dose: 1.0 mg/kg/injection, schedule: Q01DX009 (sc), vehicle: saline): 101 % of control
T/C (endpoint: mean survival time, dose: 1.8 mg/kg/injection, schedule: Q01DX009 (ip), vehicle: other): 185 % of control
T/C (endpoint: mean survival time, dose: 2.0 mg/kg/injection, schedule: Q01DX009 (sc), vehicle: saline): 104 % of control
T/C (endpoint: mean survival time, dose: 2.0 mg/kg/injection, schedule: Q03HX008 (ip), vehicle: saline): 150 % of control
T/C (endpoint: mean survival time, dose: 2.0 mg/kg/injection, schedule: Q03HX024 (ip), vehicle: saline): 151 % of control
T/C (endpoint: mean survival time, dose: 3.75 mg/kg/injection, schedule: Q01DX009 (ip), vehicle: other): 173 % of control and 174 % of control
T/C (endpoint: mean survival time, dose: 3.75 mg/kg/injection, schedule: Q04DX003 (ip), vehicle: other): 98 % of control
T/C (endpoint: mean survival time, dose: 4.0 mg/kg/injection, schedule: Q01DX009 (ip), vehicle: saline): 155 % of control and 218 % of control and 161 % of control
T/C (endpoint: mean survival time, dose: 4.0 mg/kg/injection, schedule: Q01DX009 (oral), vehicle: saline): 102 % of control
T/C (endpoint: mean survival time, dose: 4.0 mg/kg/injection, schedule: Q01DX009 (sc), vehicle: saline): 113 % of control
T/C (endpoint: mean survival time, dose: 4.0 mg/kg/injection, schedule: Q03HX008 (ip), vehicle: saline): 164 % of control
T/C (endpoint: mean survival time, dose: 4.0 mg/kg/injection, schedule: Q03HX016 (ip), vehicle: saline): 346 % of control
T/C (endpoint: mean survival time, dose: 4.0 mg/kg/injection, schedule: Q03HX024 (ip), vehicle: saline): 122 % of control
T/C (endpoint: mean survival time, dose: 7.5 mg/kg/injection, schedule: Q01DX009 (ip), vehicle: other): 91 % of control and 93 % of control
T/C (endpoint: mean survival time, dose: 7.5 mg/kg/injection, schedule: Q04DX003 (ip), vehicle: other): 150 % of control
T/C (endpoint: mean survival time, dose: 8.0 mg/kg/injection, schedule: Q01DX009 (oral), vehicle: saline): 113 % of control
T/C (endpoint: mean survival time, dose: 8.0 mg/kg/injection, schedule: Q03HX008 (ip), vehicle: saline): 86 % of control
T/C (endpoint: mean survival time, dose: 8.0 mg/kg/injection, schedule: Q03HX016 (ip), vehicle: saline): 93 % of control
T/C (endpoint: mean survival time, dose: 15.0 mg/kg/injection, schedule: Q01DX001 (ip), vehicle: other): 154 % of control
T/C (endpoint: mean survival time, dose: 15.0 mg/kg/injection, schedule: Q04DX003 (ip), vehicle: other): 124 % of control and 221 % of control
T/C (endpoint: mean survival time, dose: 16.0 mg/kg/injection, schedule: Q01DX001 (sc), vehicle: saline): 112 % of control
T/C (endpoint: mean survival time, dose: 16.0 mg/kg/injection, schedule: Q01DX009 (oral), vehicle: saline): 102 % of control
T/C (endpoint: mean survival time, dose: 16.0 mg/kg/injection, schedule: Q01DX009 (sc), vehicle: saline): 101 % of control
T/C (endpoint: mean survival time, dose: 16.0 mg/kg/injection, schedule: Q04DX003 (ip), vehicle: saline): 150 % of control
T/C (endpoint: mean survival time, dose: 32.0 mg/kg/injection, schedule: Q01DX001 (sc), vehicle: saline): 117 % of control
T/C (endpoint: mean survival time, dose: 32.0 mg/kg/injection, schedule: Q01DX009 (oral), vehicle: saline): 93 % of control
T/C (endpoint: mean survival time, dose: 32.0 mg/kg/injection, schedule: Q04DX003 (ip), vehicle: saline): 153 % of control
T/C (endpoint: mean survival time, dose: 64.0 mg/kg/injection, schedule: Q01DX001 (oral), vehicle: saline): 109 % of control
T/C (endpoint: mean survival time, dose: 64.0 mg/kg/injection, schedule: Q01DX001 (sc), vehicle: saline): 119 % of control
T/C (endpoint: mean survival time, dose: 64.0 mg/kg/injection, schedule: Q08DX002 (ip), vehicle: saline): 154 % of control
T/C (endpoint: mean survival time, dose: 128.0 mg/kg/injection, schedule: Q01DX001 (ip), vehicle: saline): 92 % of control
T/C (endpoint: mean survival time, dose: 128.0 mg/kg/injection, schedule: Q01DX001 (oral), vehicle: saline): 114 % of control
T/C (endpoint: mean survival time, dose: 128.0 mg/kg/injection, schedule: Q01DX001 (sc), vehicle: saline): 117 % of control
T/C (endpoint: mean survival time, dose: 256.0 mg/kg/injection, schedule: Q01DX001 (oral), vehicle: saline): 104 % of control
T/C (endpoint: mean survival time, dose: 256.0 mg/kg/injection, schedule: Q01DX001 (sc), vehicle: saline): 118 % of control
T/C (endpoint: mean survival time, dose: 512.0 mg/kg/injection, schedule: Q01DX001 (oral), vehicle: saline): 112 % of control
T/C (endpoint: median survival time, dose: 0.25 mg/kg/injection, schedule: Q01DX009 (sc), vehicle: other): 112 % of control
T/C (endpoint: median survival time, dose: 0.25 mg/kg/injection, schedule: Q03HX016 (ip), vehicle: other): 118 % of control
T/C (endpoint: median survival time, dose: 0.5 mg/kg/injection, schedule: Q01DX009 (sc), vehicle: other): 112 % of control
T/C (endpoint: median survival time, dose: 1.0 mg/kg/injection, schedule: Q01DX009 (ip), vehicle: saline with Tween-80): 165 % of control
T/C (endpoint: median survival time, dose: 1.0 mg/kg/injection, schedule: Q01DX009 (oral), vehicle: other): 100 % of control
T/C (endpoint: median survival time, dose: 1.0 mg/kg/injection, schedule: Q01DX009 (sc), vehicle: other): 112 % of control
T/C (endpoint: median survival time, dose: 1.0 mg/kg/injection, schedule: Q03HX008 (ip), vehicle: other): 162 % of control
T/C (endpoint: median survival time, dose: 1.0 mg/kg/injection, schedule: Q03HX016 (ip), vehicle: other): 150 % of control
T/C (endpoint: median survival time, dose: 1.0 mg/kg/injection, schedule: Q03HX024 (ip), vehicle: other): 175 % of control
T/C (endpoint: median survival time, dose: 2.0 mg/kg/injection, schedule: Q01DX001 (ip), vehicle: other): 118 % of control
T/C (endpoint: median survival time, dose: 2.0 mg/kg/injection, schedule: Q01DX001 (sc), vehicle: other): 112 % of control
T/C (endpoint: median survival time, dose: 2.0 mg/kg/injection, schedule: Q01DX009 (ip), vehicle: other): 150 % of control and 161 % of control
T/C (endpoint: median survival time, dose: 2.0 mg/kg/injection, schedule: Q01DX009 (oral), vehicle: other): 100 % of control
T/C (endpoint: median survival time, dose: 2.0 mg/kg/injection, schedule: Q03HX008 (ip), vehicle: other): 181 % of control
T/C (endpoint: median survival time, dose: 2.0 mg/kg/injection, schedule: Q03HX016 (ip), vehicle: other): 181 % of control
T/C (endpoint: median survival time, dose: 2.0 mg/kg/injection, schedule: Q04DX003 (ip), vehicle: other): 120 % of control
T/C (endpoint: median survival time, dose: 2.59 mg/kg/injection, schedule: Q04DX003 (ip), vehicle: other): 124 % of control
T/C (endpoint: median survival time, dose: 4.0 mg/kg/injection, schedule: Q01DX001 (sc), vehicle: other): 112 % of control
T/C (endpoint: median survival time, dose: 4.0 mg/kg/injection, schedule: Q01DX009 (ip), vehicle: other): 193 % of control and 200 % of control
T/C (endpoint: median survival time, dose: 4.0 mg/kg/injection, schedule: Q01DX009 (ip), vehicle: saline with Tween-80): 151 % of control (2×) and 163 % of control
T/C (endpoint: median survival time, dose: 4.0 mg/kg/injection, schedule: Q01DX009 (oral), vehicle: other): 112 % of control
T/C (endpoint: median survival time, dose: 4.0 mg/kg/injection, schedule: Q01DX009 (sc), vehicle: other): 150 % of control
T/C (endpoint: median survival time, dose: 8.0 mg/kg/injection, schedule: Q01DX001 (oral), vehicle: other): 112 % of control
T/C (endpoint: median survival time, dose: 8.0 mg/kg/injection, schedule: Q01DX001 (sc), vehicle: other): 112 % of control
T/C (endpoint: median survival time, dose: 8.0 mg/kg/injection, schedule: Q01DX009 (ip), vehicle: other): 87 % of control and 88 % of control
T/C (endpoint: median survival time, dose: 8.0 mg/kg/injection, schedule: Q01DX009 (oral), vehicle: other): 150 % of control
T/C (endpoint: median survival time, dose: 8.0 mg/kg/injection, schedule: Q01DX009 (sc), vehicle: other): 112 % of control
T/C (endpoint: median survival time, dose: 8.0 mg/kg/injection, schedule: Q04DX003 (ip), vehicle: other): 181 % of control
T/C (endpoint: median survival time, dose: 8.0 mg/kg/injection, schedule: Q08DX002 (ip), vehicle: other): 156 % of control
T/C (endpoint: median survival time, dose: 12.0 mg/kg/injection, schedule: Q04DX003 (ip), vehicle: other): 186 % of control
T/C (endpoint: median survival time, dose: 16.0 mg/kg/injection, schedule: Q01DX009 (ip), vehicle: other): 90 % of control
T/C (endpoint: median survival time, dose: 16.0 mg/kg/injection, schedule: Q01DX009 (oral), vehicle: other): 87 % of control
T/C (endpoint: median survival time, dose: 16.0 mg/kg/injection, schedule: Q01DX009 (sc), vehicle: other): 87 % of control
T/C (endpoint: median survival time, dose: 16.0 mg/kg/injection, schedule: Q04DX003 (ip), vehicle: other): 150 % of control and 175 % of control
T/C (endpoint: median survival time, dose: 16.0 mg/kg/injection, schedule: Q08DX002 (ip), vehicle: other): 175 % of control
T/C (endpoint: median survival time, dose: 20.0 mg/kg/injection, schedule: Q04DX003 (ip), vehicle: other): 98 % of control
T/C (endpoint: median survival time, dose: 32.0 mg/kg/injection, schedule: Q04DX003 (ip), vehicle: other): 106 % of control
T/C (endpoint: median survival time, dose: 64.0 mg/kg/injection, schedule: Q01DX001 (oral), vehicle: other): 150 % of control
T/C (endpoint: median survival time, dose: 64.0 mg/kg/injection, schedule: Q01DX001 (sc), vehicle: other): 156 % of control
T/C (endpoint: median survival time, dose: 128.0 mg/kg/injection, schedule: Q01DX001 (sc), vehicle: other): 118 % of control

O=Cc1ccc(O)c(Cl)c1
T/C (endpoint: mean survival time, dose: 100.0 mg/kg/injection, schedule: Q01DX001 (ip), vehicle: saline with Tween-80): 96 % of control
T/C (endpoint: mean survival time, dose: 200.0 mg/kg/injection, schedule: Q01DX001 (ip), vehicle: saline with Tween-80): 104 % of control
T/C (endpoint: mean survival time, dose: 400.0 mg/kg/injection, schedule: Q01DX001 (ip), vehicle: saline with Tween-80): 93 % of control

O=C(N/N=C/c1ccccc1)c1ccc(Cl)c(Cl)c1
T/C (endpoint: mean survival time, dose: 100.0 mg/kg/injection, schedule: Q01DX009 (ip), vehicle: Klucel (hydroxypropylcellulose) (HPC)): 105 % of control
T/C (endpoint: mean survival time, dose: 200.0 mg/kg/injection, schedule: Q01DX009 (ip), vehicle: Klucel (hydroxypropylcellulose) (HPC)): 101 % of control
T/C (endpoint: mean survival time, dose: 400.0 mg/kg/injection, schedule: Q01DX009 (ip), vehicle: Klucel (hydroxypropylcellulose) (HPC)): 101 % of control
